According to ChEMBL document CHEMBL5325400 (Eur J Med Chem, 2023):

Columns and labels:
Format in all cases: functional, cell-based
SK-OV-3 = assay: Antiproliferative activity against human SK-OV-3 cells assessed as inhibition of cell growth measured after 48 hrs by MTT assay; conditions: SK-OV-3, 48 h
HepG2 = assay: Antiproliferative activity against human HepG2 cells assessed as inhibition of cell growth measured after 48 hrs by MTT assay; conditions: HepG2, 48 h
MDA-MB-231 = assay: Antiproliferative activity against human MDA-MB-231 cells assessed as inhibition of cell growth measured after 48 hrs by MTT assay; conditions: MDA-MB-231, 48 h
HeLa = assay: Antiproliferative activity against human HeLa cells assessed as inhibition of cell growth measured after 48 hrs by MTT assay
B16-F10 = assay: Antiproliferative activity against mouse B16-F10 cells assessed as inhibition of cell growth measured after 48 hrs by MTT assay; conditions: B16-F10, 48 h
A549 = assay: Antiproliferative activity against human A549 cells assessed as inhibition of cell growth measured after 48 hrs by MTT assay; conditions: A549, 48 h

Row | IC50 (SK-OV-3) [nM] | IC50 (HepG2) [nM] | IC50 (MDA-MB-231) [nM] | IC50 (HeLa) [nM] | IC50 (B16-F10) [nM] | IC50 (A549) [nM] | SMILES
1 | > 1000 | > 1000 | > 1000 | > 1000 | > 1000 | > 1000 | COc1cccc(Nc2cc(Nc3cccc(NC(=O)C(C)(C)C)c3)ncn2)c1
2 | 31.6 | 127 | 64.9 | 22.5 | 167 | 509 | CC(=O)c1cccc(Nc2cc(Nc3cccc(NC(=O)C4CC4)c3)ncn2)c1
3 | 1.9 | 314 | 3.1 | 3.2 | 46.6 | 23.4 | CCc1cccc(Nc2cc(Nc3cccc(NC(=O)C4CC4)c3)ncn2)c1
4 | 41.1 | > 1000 | 644 | > 1000 | > 1000 | 299 | COc1cccc(Nc2cc(Nc3cccc(NC(=O)C(C)C)c3)ncn2)c1
5 | 56.8 | 284 | 438 | 130 | 54.2 | 81.6 | COc1cccc(Nc2cc(Nc3cccc(NS(=O)(=O)C4CC4)c3)ncn2)c1
6 | 286 | > 1000 | > 1000 | > 1000 | > 1000 | > 1000 | COc1cccc(Nc2cc(Nc3cccc(NS(=O)(=O)C4CCCCC4)c3)ncn2)c1
7 | 2.1 | 15.6 | 38.7 | 48.5 | 61.3 | 9.3 | O=C(Nc1cccc(Nc2cc(Nc3cccc(C(F)F)c3)ncn2)c1)C1CC1
8 | > 1000 | > 1000 | > 1000 | > 1000 | > 1000 | > 1000 | COc1cccc(Nc2cc(Nc3cccc(C(=O)NC4CCCC4)c3)ncn2)c1
9 | > 1000 | > 1000 | > 1000 | > 1000 | > 1000 | > 1000 | COc1cccc(Nc2cc(Nc3ccc(NC(=O)C4CC4)cc3)ncn2)c1

Continued, compound first:

Row | SMILES | IC50 (SK-OV-3) [nM] | IC50 (HepG2) [nM] | IC50 (MDA-MB-231) [nM] | IC50 (HeLa) [nM] | IC50 (B16-F10) [nM] | IC50 (A549) [nM]
10 | COc1cccc(Nc2nc(Nc3cccc(NC(=O)C4CC4)c3)c3ccccc3n2)c1 | > 1000 | > 1000 | > 1000 | > 1000 | > 1000 | > 1000
11 | COc1nc(Nc2cccc(NC(=O)C3CC3)c2)cc(Nc2cccc(C(F)(F)F)c2)n1 | > 1000 | > 1000 | > 1000 | > 1000 | > 1000 | > 1000
12 | COc1cccc(Nc2nc(Nc3cccc(NC(=O)C4CC4)c3)nc3ccccc23)c1 | 864 | > 1000 | 122 | > 1000 | 172 | > 1000
13 | COc1cccc(Oc2cc(Nc3cccc(NC(=O)C4CC4)c3)ncn2)c1 | 68.6 | 22.8 | 155 | 475 | 83.9 | 68.3
14 | O=C(Nc1cncc(Nc2cc(Nc3cccc(C(F)(F)F)c3)ncn2)c1)C1CC1 | > 1000 | > 1000 | > 1000 | > 1000 | > 1000 | > 1000
15 | Cc1c(F)cccc1Nc1cc(Nc2cccc(NC(=O)C3CC3)c2)ncn1 | 31.6 | 429 | 23.4 | 62.2 | 17.8 | 27.9
16 | O=C(NCCCNc1cc(Nc2cccc(C(F)(F)F)c2)ncn1)C1CC1 | > 1000 | > 1000 | > 1000 | > 1000 | > 1000 | > 1000
17 | Cc1nc(Nc2cccc(NC(=O)C3CC3)c2)cc(Nc2cccc(C(F)(F)F)c2)n1 | 123 | 64.1 | > 1000 | > 1000 | 562 | > 1000
18 | O=C(Nc1cccc(Nc2nc(Nc3cccc(C(F)(F)F)c3)nc3ccsc23)c1)C1CC1 | > 1000 | > 1000 | > 1000 | > 1000 | > 1000 | > 1000
19 | O=C(Nc1cccc(Nc2nc(Nc3cccc(C(F)(F)F)c3)c3sccc3n2)c1)C1CC1 | > 1000 | > 1000 | > 1000 | > 1000 | > 1000 | > 1000
20 | COc1cccc(Nc2nc(Nc3cccc(NC(=O)C4CC4)c3)c3ccsc3n2)c1 | > 1000 | > 1000 | > 1000 | > 1000 | > 1000 | > 1000
21 | O=C(Nc1cccc(Nc2cc(N3CCc4c3cccc4C(F)(F)F)ncn2)c1)C1CC1 | > 1000 | > 1000 | > 1000 | > 1000 | > 1000 | > 1000
22 | COc1cc(Nc2cc(Nc3cccc(NC(=O)C4CC4)c3)ncn2)ccc1Cl | 811 | 374 | 356 | 397 | 472 | 547
